# Reference: patent publication US8927717B1, “Thiochromeno[2,3-c]quinolin-12-one derivatives, preparation method and application thereof” (National Defense Medical Center, priority 2014, dated 2015)
# How the values were obtained:
# Assay type in all cases: cell-based
# HOP-62 = system: HOP-62
# OVCAR-5 = system: OVCAR-5
# A549/ATCC = system: A549/ATCC
# MALME-3M = details: Melanoma; 10^−5 molar; 48 hours; SRB
# SK-OV-3 = system: SK-OV-3
# PC-3 = system: PC-3
# HS 578T = system: HS 578T
# LOX IMVI = system: LOX IMVI
# RXF 393 = system: RXF 393
# MCF7 = system: MCF7
# SNB-19 = system: SNB-19
# CCRF-CEM = system: CCRF-CEM
# HT29 = system: HT29
# OVCAR-8 = system: OVCAR-8
# A498 = system: A498
# TK-10 = system: TK-10
# UO-31 = system: UO-31
# COLO 205 = system: COLO 205
# NCI-H460 = system: NCI-H460
# NCI-H522 = system: NCI-H522
# [1] = Homo sapiens, HOP-62, five dose
# [2] = Non-small cell lung cancer, 10^−5 molar, 48 hours, SRB
# [3] = Ovarian cancer, 10^−5 molar, 48 hours, SRB
# [4] = Homo sapiens, A549/ATCC, five dose
# [5] = Breast cancer, 10^−5 molar, 48 hours, SRB
# [6] = Homo sapiens, LOX IMVI, five dose
# [7] = Renal cancer, 10^−5 molar, 48 hours, SRB
# [8] = Homo sapiens, SNB-19, five dose
# [9] = Colon cancer, 10^−5 molar, 48 hours, SRB
# [10] = Homo sapiens, HT-29, HT29, five dose
# [11] = Homo sapiens, COLO 205, five dose
# [12] = Homo sapiens, NCI-H460, five dose
# [13] = Homo sapiens, NCI-H522, five dose
smiles,measurement,setting,value
"CCNc1nc2ccccc2c2c(=O)c3cc(Cl)ccc3sc12 [Compound N2, 10-Chloro-6-ethylamino-12H-thiochromeno[2,3-c]quinolin-12-one]",TGI,"HOP-62; HOP-62, five dose",35.20 µM
same,GI50,HOP-62; [1],13.3 µM
same,LC50 (lethal concentration 50),HOP-62; [1],93.1 µM
same,Growth percent HOP-62,HOP-62; [2],57.49%
same,GI50,"OVCAR-5; Homo sapiens, OVCAR-5, five dose",> 100 µM
same,CC50,"OVCAR-5; Homo sapiens, OVCAR-5, five dose, read-out: LC50 (the source's name)",> 100 µM
same,TGI,"OVCAR-5; OVCAR-5, five dose",>100 µM
same,Growth percent OVCAR-5,OVCAR-5; [3],92.93%
same,TGI,"A549/ATCC; A549/ATCC, five dose",>100 µM
same,GI50,A549/ATCC; [4],48.1 µM
same,LC50,A549/ATCC; [4],> 100 µM
same,Growth percent A549/ATCC,A549/ATCC; [2],61.84%
same,Growth percent MALME-3M,MALME-3M,77.31%
same,GI50,"SK-OV-3; Homo sapiens, SK-OV-3, five dose",11.1 µM
same,CC50,"SK-OV-3; Homo sapiens, SK-OV-3, five dose, read-out: LC50 (the source's name)",> 100 µM
same,Growth percent SK-OV-3,SK-OV-3; [3],28.90%
same,TGI,"SK-OV-3; SK-OV-3, five dose",35.20 µM
same,GI50,"PC-3; Homo sapiens, PC-3, five dose",> 100 µM
same,CC50,"PC-3; Homo sapiens, PC-3, five dose, read-out: LC50 (the source's name)",> 100 µM
same,TGI,"PC-3; PC-3, five dose",>100 µM
same,Growth percent PC-3,"PC-3; Prostate cancer, 10^−5 molar, 48 hours, SRB",77.80%
same,Growth percent HS 578T,HS 578T; [5],36.37%
same,TGI,"HS 578T; HS 578T, five dose",65.5 µM
same,GI50,"HS 578T; Homo sapiens, HS 578T, five dose",9.64 µM
same,CC50,"HS 578T; Homo sapiens, HS 578T, five dose, read-out: LC50 (the source's name)",> 100 µM
same,GI50,LOX IMVI; [6],> 100 µM
same,LC50,LOX IMVI; [6],> 100 µM
same,TGI,"LOX IMVI; LOX IMVI, five dose",>100 µM
same,Growth percent LOX IMVI,"LOX IMVI; Melanoma, 10^−5 molar, 48 hours, SRB",80.61%
same,GI50,"RXF 393; Homo sapiens, RXF 393, five dose",13.1 µM
same,CC50,"RXF 393; Homo sapiens, RXF 393, five dose, read-out: LC50 (the source's name)",> 100 µM
same,TGI,"RXF 393; RXF 393, five dose",44.6 µM
same,Growth percent RXF 393,RXF 393; [7],34.56%
same,Growth percent MCF7 (Table 2: MCF),MCF7; [5],17.54%
same,CC50,"MCF7; Homo sapiens, MCF7, five dose, read-out: LC50 (the source's name)",> 100 µM
same,TGI,"MCF7; MCF7, five dose",>100 µM
same,Growth percent SNB-19,"SNB-19; CNS cancer, 10^−5 molar, 48 hours, SRB",84.19%
same,GI50,SNB-19; [8],26.6 µM
same,LC50 (concentration killing 50% of cells),SNB-19; [8],> 100 µM
same,TGI,"SNB-19; SNB-19, five dose",81.10 µM
same,TGI,"CCRF-CEM; CCRF-CEM, five dose",>100 µM
same,GI50,"CCRF-CEM; Homo sapiens, CCRF-CEM, five dose",> 100 µM
same,CC50,"CCRF-CEM; Homo sapiens, CCRF-CEM, five dose, read-out: LC50 (the source's name)",> 100 µM
same,Growth percent CCRF-CEM,"CCRF-CEM; Leukemia, 10^−5 molar, 48 hours, SRB",88.62%
same,Growth percent HT29,HT29; [9],68.21%
same,TGI,"HT29; HT29, five dose",>100 µM
same,GI50,HT29; [10],> 100 µM
same,LC50 (concentration killing 50% of cells),HT29; [10],> 100 µM
same,GI50,"OVCAR-8; Homo sapiens, OVCAR-8, five dose",17.7 µM
same,CC50,"OVCAR-8; Homo sapiens, OVCAR-8, five dose, read-out: LC50 (the source's name)",> 100 µM
same,TGI,"OVCAR-8; OVCAR-8, five dose",>100 µM
same,Growth percent OVCAR-8,OVCAR-8; [3],62.54%
same,TGI,"A498; A498, five dose",91.3 µM
same,GI50,"A498; Homo sapiens, A498, five dose",15.3 µM
same,CC50,"A498; Homo sapiens, A498, five dose, read-out: LC50 (the source's name)",> 100 µM
same,Growth percent A498,A498; [7],61.02%
same,CC50,"TK-10; Homo sapiens, TK-10, five dose, read-out: LC50 (the source's name)",> 100 µM
same,Growth percent TK-10,TK-10; [7],47.11%
same,GI50,"UO-31; Homo sapiens, UO-31, five dose",29.4 µM
same,CC50,"UO-31; Homo sapiens, UO-31, five dose, read-out: LC50 (the source's name)",> 100 µM
same,Growth percent UO-31,UO-31; [7],32.06%
same,TGI,"UO-31; UO-31, five dose",>100 µM
same,TGI,"COLO 205; COLO 205, five dose",>100 µM
same,Growth percent COLO 205,COLO 205; [9],82.36%
same,GI50,COLO 205; [11],> 100 µM
same,LC50,COLO 205; [11],> 100 µM
same,GI50,NCI-H460; [12],> 100 µM
same,LC50,NCI-H460; [12],> 100 µM
same,TGI,"NCI-H460; NCI-H460, five dose",>100 µM
same,Growth percent NCI-H460,NCI-H460; [2],53.33%
same,GI50,NCI-H522; [13],24.8 µM
same,LC50 (concentration causing 50% net cell kill),NCI-H522; [13],> 100 µM
same,TGI,"NCI-H522; NCI-H522, five dose",>100 µM
same,Growth percent NCI-H522,NCI-H522; [2],80.75%
